# From patent US20240368174A1, “Antiviral Heterocyclic Compounds” (Enanta Pharmaceuticals, Inc., priority 2023, published 2024)
# Tested on: genotype A, “Long” strain RSV
# Experiment: RSV-A assay (CPE, ATPlite readout in Hep-2 cells)
# Assay type: cell-based, Human respiratory syncytial virus
# Settings: human respiratory syncytial virus, activity class
# From the text: Hep-2 cells, (originally derived from tumors grown in irradiated-cortisonised weanling rats that had been injected with epidermoid carcinoma tissue from the larynx of a person, but later found to be indistinguishable from HeLa cells by PCR DNA analysis), were used for the culturing of genotype A, “Long” strain RSV. Flasks were inoculated with RSV and viral stocks were collected once cytopathic effect (CPE) was greater than 90%. Viral stocks in 25% sucrose media were snap frozen using liquid nitrogen to increase viral stability. Viral stock titers were quantified by tissue culture infectious dose 50% (TCID50) using 8,000 cells per well and 3-fold viral dilutions across a 96-well plate, cultured for 4 days. Viral stock titers were also quantified by a plaque forming unit assay, as described elsewhere.
# Following extensive parameter testing, the final assay is run as follows: Hep-2 cells are seeded into the inner 60 wells of a 96-well plate at 8,000 cells per well in a volume of 50 μL using Growth Media (DMEM without phenol red, 1% L-Glut, 1% Penn/Strep, 1% nonessential amino acids, 10% heat-inactivated FBS). 2-fold serial dilutions of control and test compounds are added to the wells in duplicate in a total volume of 25 μL. Viral stock is then added to the wells at a multiplicity of infection (MOI) of 0.1 in a volume of 25 μL, bringing the total volume of each well to 100 μL. The MOI is calculated using the PFU/mL, or TCID50 if unavailable. Each 96-well plate has a control column of 6 wells with cells and virus but no compound (negative control, max CPE), a column with cells but no compound or virus (positive control, minimum CPE), and a column with no cells or virus or compound (background plate/reagent control). The control wells with cells but no virus are given an additional 25 μL of growth media containing an equal quantity of sucrose as those wells receiving the viral stock in order to keep consistent in media and volume conditions. The outer wells of the plate are filled with 125 μL of moat media (DMEM, 1% Penn/Strep) to act as a thermal and evaporative moat around the test wells. Following a 5-day incubation period, the plates are read using ATPlite (50 uL added per well), which quantifies the amount of ATP (a measure of cell health) present in each well. Assay plates are read using the Envision luminometer. […] EC50 ranges are as follows: A<0.2 μM; B>0.2 μM.
row,Structure (SMILES),EC50
1,COc1cc(C(=O)NC[C@@](O)(CC#N)c2cc3c(c(-c4cc(Cl)c(F)cc4F)n2)OC[C@]3(C)C(N)=O)cc2cn(C3CC3)nc12 [Example 240],< 200 nM
2,COc1cc(C(=O)NC[C@](O)(c2cc3c(c(-c4ccc(F)c(Cl)c4Cl)n2)OC[C@]3(C)C(N)=O)C2CC2)cc2cn(C3(F)CC3)nc12 [Example 322],< 200 nM
3,COc1cc(C(=O)N(C)C[C@](O)(c2cc3c(c(-c4ccc(F)c(Cl)c4)n2)OC[C@@]3(C(N)=O)C(F)F)C2CC2)cc2cn(C3CC3)nc12 [Example 351],> 200 nM
4,COc1cc(C(=O)NC[C@](O)(c2cc3c(c(-n4ccc5c(F)cccc54)n2)OC[C@]3(C)C(N)=O)C2(F)CC2)cc2cn(C3CC3)nc12 [Example 861],< 200 nM
5,COc1nccc(-c2nc([C@@](O)(CNC(=O)c3cc(OC)c4nn(C5(F)CC5)cc4c3)C(F)(F)F)cc3c2OC[C@]3(C)C(N)=O)c1Cl [Example 543],< 200 nM
6,COc1cc(C(=O)NC[C@](O)(c2cc3c(c(-n4ncc5c(F)cccc54)n2)OC[C@]3(C)C(N)=O)C2CC2)cc2cn(C3CC3)nc12 [Example 820],< 200 nM
7,COc1cc(C(=O)NC[C@@](O)(c2ccccc2)c2cc3c(c(-n4ncc5c(F)cccc54)n2)OC[C@]3(C)C(N)=O)cc2oc(C3CC3)nc12 [Example 631],< 200 nM
8,COc1cc(C(=O)NC[C@](O)(c2cc3c(c(-c4ccn5nccc5c4Cl)n2)OC[C@]3(C)C(N)=O)C2CC2)cc2cn(C3CC3)nc12 [Example 824],< 200 nM
9,COc1cc(C(=O)NC[C@](O)(c2cc3c(c(-n4ncc5c(F)cccc54)n2)OC[C@]3(C)C(N)=O)C2CC2)cc2cn(C3(F)CC3)nc12 [Example 613],< 200 nM
10,COc1cc(C(=O)NC[C@](O)(c2cc3c(c(-c4ccnc(C)c4Cl)n2)OC[C@]3(C)C(N)=O)C2(F)CC2)cc2cn(C(F)F)nc12 [Example 527],< 200 nM
11,COc1cc(C(=O)NC[C@@](O)(c2cccc(F)c2)c2cc3c(c(-c4cc(Cl)ncc4F)n2)OC[C@]3(C)C(N)=O)cc2cn(C3CC3)nc12 [Example 410],< 200 nM
12,C[C@]1(C(N)=O)COc2c1cc([C@@](O)(CNC(=O)c1ccc3nc(C4CC4)oc3c1)C1CC1)nc2-c1ccc(F)c(Cl)c1Cl [Example 319],< 200 nM
13,COc1cc(C(=O)NC[C@](O)(c2cc3c(c(-n4ccc5c(F)cccc54)n2)OC[C@]3(C)C(N)=O)C2CC2)cc2cn(C3(F)CC3)nc12 [Example 777],< 200 nM
14,COc1cc(C(=O)NC[C@](O)(c2cc3c(c(-c4cc(Cl)ncc4C)n2)OC[C@]3(C)C(N)=O)C2CC2)cc2cn(C3CC3)nc12 [Example 417],< 200 nM
15,COc1cc(C(=O)NC[C@](O)(c2cc3c(c(-c4cc(C)ncc4F)n2)OC[C@]3(C)C(N)=O)C2CC2)cc2cn(C3CC3)nc12 [Example 412],< 200 nM
16,COc1cc(C(=O)NC[C@](O)(c2cc3c(c(-c4cc(C(F)(F)F)ncc4F)n2)OC[C@]3(C)C(N)=O)C2CC2)cc2oc(C3CC3)nc12 [Example 349],< 200 nM
17,COc1cc(C(=O)NC[C@](O)(c2cc3c(c(-n4ccc5c(F)cccc54)n2)OC[C@]3(C)C(N)=O)C2CC2)cn2cc(C3CC3)nc12 [Example 868],< 200 nM
18,COc1cc(C(=O)NC[C@](O)(c2cc3c(c(-c4ccnc(C(F)F)c4Cl)n2)OC[C@]3(C)C(N)=O)C(F)(F)F)cc2oc(C3CC3)nc12 [Example 550],< 200 nM
19,COc1cc(C(=O)NC[C@](O)(c2cc3c(c(-c4cc(F)c(F)cc4F)n2)OC[C@]3(C)C(N)=O)C2CC(F)(F)C2)cc2cn(C3(F)CC3)nc12 [Example 123],< 200 nM

# Tested on: HMPV clinical isolate A2 strain TN 94-49
# Experiment: HMPV antiviral assay, Method 2 (LLC-MK2 cells with CP-100-356, ATP-Lite)
# Assay type: cell-based
# Settings: human metapneumovirus, 168 h; hMPV A2 TN/94-49, LLC-MK2 cells with 4 μM CP-100-356, 7 days, ATP-Lite
# Summary of the method: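 EC50 comes from a four-parameter fit of percent cell viability (ATP-Lite, normalized to virus-only and cell-only wells) after 7 days at 37 °C. Infection used HMPV A2 TN 94-49 at MOI 0.16 in LLC-MK2 cells, with 2 μM P-gp inhibitor CP-100-356 and 2 μg/mL TPCK-trypsin final; dose range 200 nM top, 2.5-fold, 10 points, duplicate.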
row,Structure (SMILES),EC50
1,COc1cc(C(=O)NC[C@](O)(c2cc3c(c(-n4ccc5c(F)cccc54)n2)OC[C@]3(C)C(N)=O)C2(F)CC2)cc2cn(C3CC3)nc12 [Example 861],< 200 nM
2,COc1cc(C(=O)NC[C@](O)(c2cc3c(c(-n4ncc5c(F)cccc54)n2)OC[C@]3(C)C(N)=O)C2CC2)cc2cn(C3CC3)nc12 [Example 820],< 200 nM
3,COc1cc(C(=O)NC[C@@](O)(c2ccccc2)c2cc3c(c(-n4ncc5c(F)cccc54)n2)OC[C@]3(C)C(N)=O)cc2oc(C3CC3)nc12 [Example 631],< 200 nM
4,COc1cc(C(=O)NC[C@](O)(c2cc3c(c(-c4ccn5nccc5c4Cl)n2)OC[C@]3(C)C(N)=O)C2CC2)cc2cn(C3CC3)nc12 [Example 824],< 200 nM
5,COc1cc(C(=O)NC[C@](O)(c2cc3c(c(-n4ccc5c(F)cccc54)n2)OC[C@]3(C)C(N)=O)C2CC2)cc2cn(C3(F)CC3)nc12 [Example 777],< 200 nM
6,COc1cc(C(=O)NC[C@](O)(c2cc3c(c(-n4ccc5c(F)cccc54)n2)OC[C@]3(C)C(N)=O)C2CC2)cn2cc(C3CC3)nc12 [Example 868],< 200 nM

# Same assay, conditions: human metapneumovirus; hMPV A2 TN/94-49, LLC-MK2 cells with CP-100-356, Method 2
row,Structure (SMILES),EC50
1,COc1cc(C(=O)NC[C@@](O)(CC#N)c2cc3c(c(-c4cc(Cl)c(F)cc4F)n2)OC[C@]3(C)C(N)=O)cc2cn(C3CC3)nc12 [Example 240],> 200 nM
2,COc1cc(C(=O)NC[C@](O)(c2cc3c(c(-c4ccc(F)c(Cl)c4Cl)n2)OC[C@]3(C)C(N)=O)C2CC2)cc2cn(C3(F)CC3)nc12 [Example 322],< 200 nM
3,COc1cc(C(=O)N(C)C[C@](O)(c2cc3c(c(-c4ccc(F)c(Cl)c4)n2)OC[C@@]3(C(N)=O)C(F)F)C2CC2)cc2cn(C3CC3)nc12 [Example 351],> 200 nM
4,COc1nccc(-c2nc([C@@](O)(CNC(=O)c3cc(OC)c4nn(C5(F)CC5)cc4c3)C(F)(F)F)cc3c2OC[C@]3(C)C(N)=O)c1Cl [Example 543],< 200 nM
5,COc1cc(C(=O)NC[C@](O)(c2cc3c(c(-n4ncc5c(F)cccc54)n2)OC[C@]3(C)C(N)=O)C2CC2)cc2cn(C3(F)CC3)nc12 [Example 613],< 200 nM
6,COc1cc(C(=O)NC[C@](O)(c2cc3c(c(-c4ccnc(C)c4Cl)n2)OC[C@]3(C)C(N)=O)C2(F)CC2)cc2cn(C(F)F)nc12 [Example 527],> 200 nM
7,COc1cc(C(=O)NC[C@@](O)(c2cccc(F)c2)c2cc3c(c(-c4cc(Cl)ncc4F)n2)OC[C@]3(C)C(N)=O)cc2cn(C3CC3)nc12 [Example 410],< 200 nM
8,C[C@]1(C(N)=O)COc2c1cc([C@@](O)(CNC(=O)c1ccc3nc(C4CC4)oc3c1)C1CC1)nc2-c1ccc(F)c(Cl)c1Cl [Example 319],< 200 nM
9,COc1cc(C(=O)NC[C@](O)(c2cc3c(c(-c4cc(Cl)ncc4C)n2)OC[C@]3(C)C(N)=O)C2CC2)cc2cn(C3CC3)nc12 [Example 417],< 200 nM
10,COc1cc(C(=O)NC[C@](O)(c2cc3c(c(-c4cc(C)ncc4F)n2)OC[C@]3(C)C(N)=O)C2CC2)cc2cn(C3CC3)nc12 [Example 412],< 200 nM
11,COc1cc(C(=O)NC[C@](O)(c2cc3c(c(-c4cc(C(F)(F)F)ncc4F)n2)OC[C@]3(C)C(N)=O)C2CC2)cc2oc(C3CC3)nc12 [Example 349],< 200 nM
12,COc1cc(C(=O)NC[C@](O)(c2cc3c(c(-c4ccnc(C(F)F)c4Cl)n2)OC[C@]3(C)C(N)=O)C(F)(F)F)cc2oc(C3CC3)nc12 [Example 550],< 200 nM
13,COc1cc(C(=O)NC[C@](O)(c2cc3c(c(-c4cc(F)c(F)cc4F)n2)OC[C@]3(C)C(N)=O)C2CC(F)(F)C2)cc2cn(C3(F)CC3)nc12 [Example 123],< 200 nM
